Results reported in a melting point compilation (Tetko et al.; mined from patent text by program, amines drawn as free bases though some values may be those of a salt).

Row | melting point [°C] | SMILES
1 | 113 to 114 | COc1ccc(-c2nc(Cl)c(Oc3ccccc3OC)c(Cl)n2)cc1
2 | 210 | CC(C)(OCc1n[nH]c2ccc([N+](=O)[O-])cc12)C(=O)O
3 | 111 | CCOCn1c(Cc2ccccc2)c(C(C)C)c(=O)[nH]c1=O
4 | 187 to 190 | CC(C)(C)NC(=O)/C=C/c1ccc(C(=O)c2c(-c3ccc(O)cc3)sc3cc(O)ccc23)cc1
5 | 116 to 118 | CCC(CC)c1ccc(Cl)c2nc(Nc3ccc(OC)nc3OC)n(CCCCO)c12
6 | 130 to 132 | CCOC(=O)c1cnc2ncnn2c1Cl
7 | 159 to 160 | Cc1oc(-c2cccs2)nc1COc1ccc(Cn2cc(CCC(=O)O)c(-c3ccccc3)n2)cc1
8 | 189 to 191 | CC(=O)Nc1cccc2c1C(=O)C1(NC(C)=O)c3ccc(C(C)C)cc3OC21O (stereo unspecified)
9 | 68 to 70 | FC(F)(F)c1cccc(Sc2cc(Br)nc(Br)c2)c1
10 | 171 to 173 | O=C1CCC(N2C(=O)c3cccc(NCc4ccco4)c3C2=O)C(=O)N1 (stereo unspecified)
11 | 46 | c1ccc2c(c1)Cc1ccncc1N1OC(CN3CCOCC3)CC21 (stereo unspecified)
12 | > 300 | N#CC(C#N)=C1Sc2nc3ccc(Cl)cc3nc2S1
13 | 204 | CCc1cn2ccccc2c1S(=O)(=O)c1ccc(O)cc1
14 | 146 to 148 | CC(=O)c1sc(N2CCN(CC3CC3(F)F)C2=O)nc1C (stereo unspecified)
15 | 189 to 190 | CC(C)c1cccc(C(C)C)c1NC(=O)NCC1CCCc2ccccc21 (stereo unspecified)
16 | 253 | CCCC1=C(C#N)C(c2ccccc2Cl)c2c(n[nH]c2-c2ccco2)N1 (stereo unspecified)
17 | 195 | Cc1cc(Cc2cc3cc(C(F)(F)F)ccc3n2S(=O)(=O)c2cccc(C(C)(C)C)c2)c(F)cc1C(=O)O
18 | 161 to 163 | CCCCCC(CNC(=O)Nc1c(C(C)C)cccc1C(C)C)c1cccc2c1OCO2 (stereo unspecified)
19 | 170 to 173 | Fc1cc(CBr)ccc1-c1nc2ccccc2o1
20 | 239 to 241 | Cc1cc(SCc2ccnc3[nH]c(-c4ccc(C(F)(F)F)cc4)nc23)ccc1OCC(=O)O
21 | 171 to 172 | Cn1cccc1CCNC(=O)Cn1c(-c2ccc(Cl)cc2)nc2cccnc21
22 | 130 to 132 | Clc1cc2c(c(-c3nc4ncccc4o3)c1)CCCC2
23 | 165 to 166 | Nc1nc(N)c(Br)c(OCc2ccccc2)n1
24 | 153 | CC#CCOc1ccc(SC(C(=O)NO)c2ccc(Br)cc2)cc1 (stereo unspecified)

Row | melting point [°C] | SMILES
25 | 244 to 246 | CCOc1ccc2[nH]c3c([N+](=O)[O-])ccc(Cl)c3c(=O)c2c1
26 | 81 | COc1cccc(Cc2oc3ccc(OC)cc3c2CC#N)c1
27 | 39 to 42 | C=CCN(CC=C)C(=O)n1cnc(S(=O)(=O)CC)n1
28 | 172 to 178 | CC1CCNc2nc3ccc([N+](=O)[O-])cc3n21 (stereo unspecified)
29 | 111 to 113 | CC(N)C(=O)Nc1coc2cc(NS(C)(=O)=O)c(Oc3ccccc3)cc2c1=O (stereo unspecified)
30 | 71 to 73 | CCCCCC(=O)c1c(CBr)n(C(=O)OC)c(=O)n1C(=O)OC
31 | 122 to 124 | Oc1c(I)cc(Br)cc1I
32 | 100 to 101 | O=[N+]([O-])c1cc(CBr)cc(CBr)c1
33 | 155 to 160 | O=C(CCCCCc1ccccc1)NNC(=O)c1ccc(O)cc1
34 | 151 to 154 | CC(=O)OC1CCC2(C)C(CCC3C4CCC(C(C)=O)C4(C)CC(=O)C32Cl)C1 (stereo unspecified)
35 | 276 | O=C(NC(Cc1ccc(OCC2CC2)cc1)C(=O)O)c1cn2cc(-c3ccc(Cl)cc3)ccc2n1 (stereo unspecified)
36 | 70 to 72 | CC(C)C(NC(=O)Cn1cccc(NC(=O)Cc2ccccc2)c1=O)C(=O)C(F)(F)F (stereo unspecified)
37 | 97 to 98 | COc1ccc2c(c1)C(C(=O)N(Cc1ccc3c(c1)OCO3)c1ccc(C(C)C)cc1)CCC2 (stereo unspecified)
38 | 197 to 200 | CC1=C(c2ccc(O)cc2)CCC(=O)N1
39 | 88 to 89 | CC(C)OC(=O)c1cc2c3ccccc3n(Cc3ccccc3)c2s1
40 | 178 to 181 | Cc1ccc(-c2nc3ccc(N4C[C@H]5CN(C)C[C@H]5C4)nn3c2-c2ccncc2)o1
41 | 223 to 234 | CC1(C)Oc2ccsc2C(NC(=O)c2ccncc2)C1O (stereo unspecified)
42 | 211 to 213 | COc1ccc2c(ccc3c4ccc(OC)cc4c(=O)n(-c4ccc(O[Si](C)(C)C(C)(C)C)cc4)c23)c1
43 | 180 to 182 | O=C(O)c1cccnc1Cc1ccccc1
44 | 207 to 208 | Nc1ccc(C(=O)Nc2ccc3oc4c(c3c2)CCCC4)cc1
45 | 94.7 | N#Cc1cccc2c(C3CCCCC3)nccc12
46 | 195 to 196 | Cc1ccc2nc(-c3cc(C(F)(F)C(F)(F)F)nn3-c3ccc(S(C)(=O)=O)cc3)sc2c1
47 | 213 | CCCn1c(COCC)nc2c(N)nc3cc(OCC(=O)N4CCOCC4)ccc3c21
48 | 169 to 170 | CC1(C)[C@@H]2CC3[C@H](C(=O)NCC(N)=O)[C@@]3(C)C[C@@H]21 (stereo partly specified)

Row | melting point [°C] | SMILES
49 | 127 to 128 | O=[N+]([O-])c1ccc(S(=O)(=O)Nc2ccc(F)cc2)c([N+](=O)[O-])c1
50 | 151 to 152 | COC(=O)CCn1c(=O)n(CCN2CCN(c3ccccc3OC)CC2)c(=O)c2sccc21
51 | 304 to 306 | O=c1c2c[nH]c3c(c-2nn1-c1ccccc1)COCC3
52 | 134 to 135 | CC(Oc1ncn(-c2cccc(Br)c2)n1)C(=O)NC1CC1 (stereo unspecified)
53 | 186 to 188 | O=C(O)CC1CCN(Cc2ccccc2)C1c1c(Cl)cccc1Cl (stereo unspecified)
54 | > 240 | Nn1c(=O)c(=O)[nH]c2ccc3ccc([N+](=O)[O-])cc3c21
55 | 206 to 207 | O=c1[nH]ccc2c1C(c1cccc([N+](=O)[O-])c1)N=C(c1ccccc1)N2 (stereo unspecified)
56 | > 260 | CC(C)(C)n1cc(C(=O)O)c(=O)c2cc(F)c(F)cc21
57 | 112 to 114 | Cc1c(SCCCCl)ccnc1CSc1nc2ccccc2[nH]1
58 | 186 to 190 | O=C(C(=Cc1ccccc1)c1ccccc1)c1ccc(O)cc1
59 | 149 to 150 | O=c1c2c(oc3ccc(Br)cc13)CCCC2
60 | 216 to 217 | CCC1Oc2ccc(-c3nc4ccccn4c3C)cc2NC1=O (stereo unspecified)
61 | 180 to 182 | COc1nc(C)cnc1NS(=O)(=O)c1cccnc1-c1ccc(OCCO)cc1
62 | 102 to 125 | CC(C)N1CCOC(CN2C(=O)C3(COc4cc5c(cc43)OCCO5)c3ccccc32)C1 (stereo unspecified)
63 | 112 | COC(=O)c1ccccc1NC(C#N)c1ccc(Br)cc1 (stereo unspecified)
64 | > 300 | Nc1nc(N)c2nc(-c3cccc(O)c3)cnc2n1
65 | 213 to 215 | Cc1ncc(CNC(=O)c2sc(N3CCN(Cc4ccc(F)cc4)C3=O)nc2C)s1
66 | 292 to 294 | COc1cc2ncc(C#N)c(Nc3ccc(C)c(Br)c3)c2cc1OC
67 | 180 to 181 | CC(C)[C@H](S)C(=O)NC(C)(C)C(=O)N[C@@H](Cc1ccc(O)cc1)C(=O)O
68 | 180 to 182 | Cc1cc(=O)n2cccc(OCc3ccc(Cl)cc3Cl)c2n1
69 | 110 to 112 | O=[N+]([O-])c1ccc2sc(CCl)cc2c1
70 | 196 to 199 | Clc1ccc2c(c1)N=C(N1CCN(C3CC3)CC1)c1ccccc1N2

Row | SMILES | melting point [°C]
71 | CC(NC(=O)C(F)c1cc(F)cc(F)c1)C(=O)NC1N=C(c2ccccc2)c2ccccc2N(C)C1=O (stereo unspecified) | 119 to 120
